One series concerns BV-associated organisms. Description: Survival of BV-associated organisms after 2-hour exposure to racemic lactic acid. It is filed as cell-based, Eighteen BV-associated organisms. To be noted: pH 4.5, between 10 and 100 mM (~0.1-1%) lactic acid, 37° C., versus pH 4.5 without lactic acid. The protocol: (§1) Eighteen BV-associated organisms, and four lactobacillus strains obtained from the American Type Culture Collection, Rockville Md., were grown in appropriate growth medium and incubation conditions, and exposed to a 2-hour further incubation at 37° C. in media at pH 7 without lactic acid, or at pH 4.5 with racemic lactic acid concentrations ranging from zero to 550 mM (5%). The number of organisms surviving exposure to these conditions is plotted in FIG. 4. BV-associated organisms are plotted with solid lines.

Another series deals with lactobacilli. Description: Survival of lactobacillus strains after 2-hour exposure to lactic acid. Type of series: cell-based, four lactobacillus strains. Here is the method:
as §1

Series [1] concerns Herpes simplex virus type 2 (HSV-2). Description: Inactivation of cell-free HSV-2 by acidified exposure media, titred on Elvis cells. The note with it: 0.1% acid, pH 3.8, 30 minutes, 37° C. It is filed as cell-based. The protocol: The effect of low pH alone, and low pH in the presence of racemic lactic acid, L-lactic acid, and D-lactic acid on the survival of Herpes simplex virus type 2 (HSV-2) was assessed. Cell-free HSV-2 (ATCC VR-734™ strain 9, American Type Culture Collection, Manassas, Va.) was aliquoted, stored at −80° C., and thawed immediately before its use. Elvis™ (Enzyme-linked Virus Inducible System™) cells (Diagnostic Hybrids, Athens Ohio) were supplied growing in flat-bottomed, 96-well microplates. Each plate was kept in a humidified incubator (5% CO2, 37° C.) until the cells were between 75% and 95% confluent. The supplier's original growth medium was replaced with fresh, pre-warmed tissue culture re-feeding medium (Trinity Biotech USA, Jamestown, N.Y.) several hours before the microplate was used in an experiment.
Viral exposure media were prepared by adding 0.1% D,L-lactic acid (Sigma-Aldrich, St. Louis, Mo.), D-lactic acid (Bachem Bioscience Inc., King of Prussia, Pa.), L-lactic acid, (Sigma-Aldrich, St. Louis, Mo.), acetic acid (Sigma-Aldrich) or no acid to 0.9% NaCl in deionized water. The pH of the solutions was measured and adjusted as necessary before, during, and after the experiments using an MI-410 combination pH electrode (Microelectrodes Inc., Bedford, N.H.) to pH 3.8 for all of the organic acid-containing viral exposure media. Two viral exposure media not containing an organic acid were adjusted to pH 3.8 with HCl, or to pH 7.4 with dilute NaOH. Freshly thawed viral stock was diluted 1:10 with viral exposure media and incubated for 30 minutes at 37° C. At the end of the incubation, all media were diluted ten-fold with re-feeding medium to rapidly neutralize the acidity of those media that were acidic. Three-fold serial dilutions were then made with the same growth medium. Each dilution of virus was then inoculated into two replicate wells on a microplate of Elvis™ cells. The microplate was spun at […], 25° C. for 25 minutes and incubated in a humidified incubator (5% CO2, 37° C.) for 16-24 hours. The growth medium was removed from the microplate wells, and the Elvis™ cells were fixed and stained according to the manufacturer's instructions. The microplate wells were examined on an inverted microscope for the presence of blue-stained cells, indicating viral infection.

Series [2] has as its system Herpes simplex virus type-1 (HSV-1). Kind of series: Inactivation of HSV-1 (KOS strain) by acidified exposure media. It is filed as cell-based. To be noted: 0.1%, pH 3.8, 30-minute exposure.
The test system of series [3] is M. mulieris, M. curtisii, Mycoplasma hominus. Description: Inactivation of three BV-associated organisms by L-lactic acid. The note with it: pH 4.5, 2-hour, 37° C. It is filed as cell-based, Mobiluncus mulieris, Mobiluncus curtisii. The protocol: as §1

Molecules are shown by their SMILES.

Procedure for HeLa cells: The toxicity of D-lactic acid and of L-lactic acid were assessed on tissue culture monolayers using a well known cell viability assay. HeLa cells (ATCC CCL-2, a cell line derived from a cervical epithelial cancer) were grown in 96-well tissue culture plates to approximately 90% confluence in DMEM medium supplemented with 3% fetal bovine serum. Medium was removed from the wells, and replaced by the same medium now containing D- or L-lactic acid between concentrations of 0% and 1% (w/v). The plates were incubated for 30 minutes at 37° C. and 5% CO2. The wells were washed three times with 0.9% saline, and then 20 microliters of a tetrazolium viability stain (Promega CellTiter 9603 One Solution) was added. After 1 hour, the absorbance of the fluid in the wells was read with a spectrophotometer at a wavelength of 575 nanometers.

Turning to `CC(O)C(=O)O` (racemic) [racemic lactic acid, D,L-lactic acid, reference compound], the “Inactivation of BV-associated organisms (in words)” value in the series with BV-associated organisms is reported as “dramatically increased”. Further, the “Survival of lactobacilli (in words)” value in the series on lactobacilli (pH 4.5, highest concentration tested (5% or ~550 millimolar), 2-hour, 37° C.) is reported as “survived unaltered”.

With `C[C@@H](O)C(=O)O` [D-lactic acid, reference compound], the “HSV-2 inactivation beyond low pH without organic acids (in words)” value in series [1] is “further reduced HSV-2 viability”.

Consider `CC(=O)O` [acetic acid, reference compound], for which the “HSV-2 inactivation beyond low pH without organic acids (in words)” value in series [1] is on record as “did not increase the degree of inactivation”.

As for `C[C@H](O)C(=O)O` [L-lactic acid], in series [1], the “HSV-2 inactivation beyond low pH without organic acids (in words)” value is “further reduced HSV-2 viability”; the “reduction of HSV-2 viability, more than low pH with D-lactic acid” value was “approximately 5 fold”; the “reduction of HSV-2 viability, more than low pH without lactic acid” value is “approximately 11 fold”. Also, in series [2], the “HSV-1 inactivation, greater than D-lactic acid at pH 3.8” value is “approximately 10 fold”; the “HSV-1 inactivation, more than at pH 3.8 without lactic acid” value is recorded as about 25 fold; the “HSV-1 inactivation, more than the control at pH 7.4 without lactic acid” value is “approximately 80 fold”. For the same compound, the “concentration not harmful to lactobacilli” value in the series on lactobacilli (pH 4.5, inferred from 550 mM racemic lactic acid being 50% L-lactic acid) is “up to 280 mM”. Further, the “Inactivation of all three organisms at pH 4.5 with L-lactic acid versus pH 4.5 without lactic acid (in words)” value in series [3] is listed as “substantially greater”. The “shift of dose-response for cellular cytotoxicity relative to D-lactic acid” value in the series with HeLa cells is reported as “more than 500 fold”.
